Data taken from ChEMBL document CHEMBL3621191, “Pyrimidine sulfonylacetanilides with improved potency against key mutant viruses of HIV-1 by specific targeting of a highly conserved residue” (Eur J Med Chem, 2015).

How the values were obtained:
[1] = system: Human immunodeficiency virus 1; assay: Antiviral activity against HIV1 3B expressing reverse transcriptase K103N + Y181C mutant infected in human MT4 cells assessed as reduction in virus-induced cytopathogenicity incubated for 4 days by MTT method; format: functional, organism-based; settings: Human immunodeficiency virus 1, 3B, MT4, 96 h
[2] = system: Human immunodeficiency virus 2; assay: Antiviral activity against HIV2 ROD infected in human MT4 cells assessed as reduction in virus-induced cytopathogenicity incubated for 4 days by MTT method; format: functional, organism-based; settings: Human immunodeficiency virus 2, ROD, MT4, 96 h
[3] = Cytotoxicity against human MT4 cells assessed as reduction in cell viability incubated for 4 days by MTT assay; format: cell-based
[4] = Selectivity index, ratio of CC50 for human MT4 cells to EC50 for HIV1 3B infected in human MT4 cells; format: toxicity, cell-based; settings: read-out: Ratio CC50/EC50
[5] = system: Human immunodeficiency virus 1; assay: Antiviral activity against HIV1 expressing reverse transcriptase F227L + V106A mutant; format: functional, organism-based
[6] = molecular target: Human immunodeficiency virus type 1 reverse transcriptase (Human immunodeficiency virus 1, UniProt Q72547); assay: Inhibition of HIV1 reverse transcriptase p66/p51 assessed as inhibition of biotin-dUTP incorporation using poly (rA)/oligo(dT)16 as template/primer incubated for 40 mins
[7] = system: Human immunodeficiency virus 1; assay: Antiviral activity against HIV1 3B infected in human MT4 cells assessed as reduction in virus-induced cytopathogenicity incubated for 4 days by MTT method; format: functional, organism-based; settings: Human immunodeficiency virus 1, 3B, MT4, 96 h
[8] = system: Human immunodeficiency virus 1; assay: Antiviral activity against HIV1 expressing reverse transcriptase L100I mutant; format: functional, organism-based
[9] = system: Human immunodeficiency virus 1; assay: Antiviral activity against HIV1 expressing reverse transcriptase K103N mutant; format: functional, organism-based
[10] = system: Human immunodeficiency virus 1; assay: Antiviral activity against HIV1 expressing reverse transcriptase E138K mutant; format: functional, organism-based
[11] = system: Human immunodeficiency virus 1; assay: Antiviral activity against HIV1 expressing reverse transcriptase Y181C mutant; format: functional, organism-based
[12] = system: Human immunodeficiency virus 1; assay: Antiviral activity against HIV1 expressing reverse transcriptase Y188L mutant; format: functional, organism-based

| Compound | EC50 [1] [nM] | EC50 [2] [nM] | CC50 at 96 h [3] [nM] | selectivity ratio [4] | EC50 [5] [nM] | IC50 [6] [nM] | EC50 [7] [nM] | EC50 [8] [nM] | EC50 [9] [nM] | EC50 [10] [nM] | EC50 [11] [nM] | EC50 [12] [nM] |
| --- | --- | --- | --- | --- | --- | --- | --- | --- | --- | --- | --- | --- |
| Cc1cc(C#N)cc(C)c1Oc1ccnc(SCC(=O)Nc2ccc(C#N)cc2)n1 | > 301000 | > 301000 | > 301000 | > 71 |  |  |  |  |  |  |  |  |
| Cc1cc(C#N)cc(C)c1Oc1ccnc(S(=O)(=O)CC(=O)Nc2ccc(F)cc2)n1 | 4360 | > 26100 | 26100 | 2930 | 1480 | 1840 | 8.9 | 749 | 40.9 | 227 | 681 | 3970 |
| Cc1cc(C#N)cc(C)c1Oc1ccnc(S(=O)(=O)CC(=O)Nc2ccccc2Cl)n1 | > 12500 | > 12500 | 12500 | 8.7 |  | 143000 | 1440 |  |  |  |  |  |
| Cc1cc(C#N)cc(C)c1Oc1ccnc(S(=O)(=O)CC(=O)Nc2cccc(Cl)c2)n1 | 7220 | > 25400 | 25400 | 831 |  | 978 | 30.6 |  |  |  |  |  |
| Cc1cc(C#N)cc(C)c1Oc1ccnc(S(=O)(=O)CC(=O)Nc2ccc(Cl)cc2)n1 | 1050 | > 16600 | 16600 | 4740 | 678 | 720 | 3.5 | 190 | 10.1 | 41.6 | 129 | 1420 |
| Cc1cc(C#N)cc(C)c1Oc1ccnc(S(=O)(=O)CC(=O)Nc2ccc(Cl)cc2Cl)n1 | > 10400 | > 10400 | 10400 | 36.5 |  | 15300 | 285 |  |  |  |  |  |
| Cc1cc(C#N)cc(C)c1Oc1ccnc(S(=O)(=O)CC(=O)Nc2ccc(Cl)c(Cl)c2)n1 | 1180 | > 11700 | 11700 | 666 | 3200 | 177 | 17.5 | 468 | 44.8 | 244 | 326 | 1460 |
| Cc1cc(C#N)cc(C)c1Oc1ccnc(S(=O)(=O)CC(=O)Nc2cc(Cl)cc(Cl)c2)n1 | > 24000 | > 24000 | 24000 | 58.9 |  | 918 | 407 |  |  |  |  |  |
| Cc1cc(C#N)cc(C)c1Oc1ccnc(S(=O)(=O)CC(=O)Nc2ccc(Br)cc2)n1 | 957 | > 15600 | 15600 | 5980 | 479 | 728 | 2.6 | 184 | 10 | 39.9 | 116 | 957 |
| Cc1cc(C#N)cc(C)c1Oc1ccnc(S(=O)(=O)CC(=O)Nc2ccc(C#N)cc2)n1 | 425 | ≥ 32200 | ≥ 6010 | ≥ 3540 | 127 | 65 | 1.7 | 67 | 3.4 | 16.5 | 31.3 | 313 |
| Cc1cc(C#N)cc(C)c1Oc1ccnc(S(=O)(=O)CC(=O)Nc2ccc(C#N)cc2F)n1 | > 269000 | > 269000 | > 269000 | > 7810 |  | 296 | 34.4 |  |  |  |  |  |
| Cc1cc(C#N)cc(C)c1Oc1ccnc(S(=O)(=O)CC(=O)Nc2cccc([N+](=O)[O-])c2)n1 | ≥ 7490 | > 23600 | 23600 | 501 |  | 1410 | 47.1 |  |  |  |  |  |
| Cc1cc(C#N)cc(C)c1Oc1ccnc(S(=O)(=O)CC(=O)Nc2ccc([N+](=O)[O-])cc2)n1 | 385 | > 59600 | 59600 | 45800 | 141 | 53 | 1.3 | 111 | 7.3 | 25.7 | 40.6 | 278 |
| Cc1cc(C#N)cc(C)c1Oc1ccnc(S(=O)(=O)CC(=O)Nc2ccccc2)n1 | > 29300 | > 29300 | 29300 | 1120 |  | 15700 | 26 |  |  |  |  |  |
| Cc1cccc(NC(=O)CS(=O)(=O)c2nccc(Oc3c(C)cc(C#N)cc3C)n2)c1 | > 25700 | > 25700 | 25700 | 75 |  | 133000 | 344 |  |  |  |  |  |
| Cc1ccc(NC(=O)CS(=O)(=O)c2nccc(Oc3c(C)cc(C#N)cc3C)n2)cc1 | ≥ 9620 | > 7490 | 7490 | 1060 |  | 766 | 7.1 |  |  |  |  |  |
| Cc1ccc(NC(=O)CS(=O)(=O)c2nccc(Oc3c(C)cc(C#N)cc3C)n2)cc1C | > 13900 | > 13900 | 13900 | 179 |  | 27300 | 77.7 |  |  |  |  |  |
| COc1ccc(NC(=O)CS(=O)(=O)c2nccc(Oc3c(C)cc(C#N)cc3C)n2)cc1 | > 5100 | > 5100 | 5100 | 136 |  | 4660 | 37.6 |  |  |  |  |  |
| Cc1cc(C#N)cc(C)c1Oc1ccnc(S(=O)(=O)CC(=O)Nc2ccccc2F)n1 | > 28400 | > 28400 | 28400 | 176 |  | 24300 | 161 |  |  |  |  |  |
| Cc1cc(C#N)cc(C)c1Oc1ccnc(S(=O)(=O)CC(=O)Nc2cccc(F)c2)n1 | 7150 | > 25900 | 25900 | 1680 |  | 220 | 15.4 |  |  |  |  |  |
| O=C1Nc2ccc(Cl)cc2[C@@](C#CC2CC2)(C(F)(F)F)O1 [EFAVIRENZ] |  |  | > 6340 |  | 228 |  | 6.3 | 95 |  | 5.4 | 8.2 | 348 |
| Cc1cc(C#N)cc(C)c1Oc1nc(Nc2ccc(C#N)cc2)nc(N)c1Br [ETRAVIRINE] |  |  | > 4600 | > 1120 | 14.9 |  |  | 17.7 | 3.2 | 16.8 | 11.5 | 15.9 |
| Cc1ccnc2c1NC(=O)c1cccnc1N2C1CC1 [NEVIRAPINE] | ≥ 7580 |  | > 15000 |  | > 15000 |  |  | 3460 | 9350 | 289 | ≥ 12400 | > 15000 |
